According to PubChem BioAssay (NCI):
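Each compound was tested at five concentrations against cells in 96-well plates for 48 hours. Here, GI50 denotes the concentration required for 50% inhibition of growth. Definition used: TGI = concentration required for complete inhibition of growth.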

How the values were obtained:
Assay in all cases: DTP human tumour cell line panel, 48 h
[1] = system: SW-620 colon
[2] = system: EKVX NSCLC
[3] = system: SK-MEL-28 melanoma
[4] = system: HL-60(TB) leukemia
[5] = system: SF-539 CNS
[6] = system: NCI-H522 lung
[7] = system: MCF7 breast
[8] = system: HCT-15 colon
[9] = system: UACC-257 melanoma
[10] = system: HOP-62 NSCLC
[11] = system: UACC-62 melanoma
[12] = system: SK-OV-3 ovarian
[13] = system: SF-268 CNS
[14] = system: SR leukemia
[15] = system: OVCAR-3 ovarian
[16] = system: OVCAR-4 ovarian
[17] = system: SNB-19 CNS
[18] = system: PC-3 prostate
[19] = system: KM12 colon
[20] = system: ACHN renal
[21] = system: A498 renal
[22] = system: RXF 393 renal
[23] = system: SN12C renal
[24] = system: SK-MEL-5 melanoma
[25] = system: NCI/ADR-RES ovarian
[26] = system: MOLT-4 leukemia
[27] = system: T-47D breast
[28] = system: HCT-116 colon
[29] = system: HT29 colon
[30] = system: COLO 205 colon
[31] = system: TK-10 renal
[32] = system: SK-MEL-2 melanoma
[33] = system: CAKI-1 renal
[34] = system: 786-0 renal
[35] = system: OVCAR-8 ovarian
[36] = system: SNB-75 CNS
[37] = system: U251 CNS
[38] = system: IGROV1 ovarian
[39] = system: CCRF-CEM leukemia
[40] = system: OVCAR-5 ovarian
[41] = system: RPMI-8226 leukemia
[42] = system: NCI-H226 lung
[43] = system: HS 578T breast
[44] = system: LOX IMVI melanoma
[45] = system: SF-295 CNS
[46] = system: NCI-H23 lung
[47] = system: BT-549 breast
[48] = system: UO-31 renal
[49] = system: MALME-3M melanoma
[50] = system: K-562 leukemia
[51] = system: HCC-2998 colon
[52] = system: NCI-H460 lung
[53] = system: M14 melanoma
[54] = system: HOP-92 NSCLC
[55] = system: MDA-MB-468 breast
[56] = system: A549 NSCLC
[57] = system: MDA-MB-231 breast
[58] = system: MDA-MB-435
[59] = system: DU-145 prostate

O=c1[nH]c2ccc(Cl)cc2cc1CSc1ccc(Nc2nccc(-c3ccc(Cl)cc3)n2)cc1
GI50 [1]: 4.42 µM
TGI [1]: 20 µM
GI50 [2]: 28.1 µM
TGI [2]: > 100 µM
GI50 [3]: 22.6 µM
TGI [3]: 72.3 µM
GI50 [4]: 42.9 µM
TGI [4]: > 100 µM
GI50 [5]: 15.1 µM
TGI [5]: 31.1 µM
GI50 [6]: 20.1 µM
TGI [6]: 51.7 µM
GI50 [7]: 5.65 µM
TGI [7]: 28.5 µM
GI50 [8]: 6.64 µM
TGI [8]: 24.5 µM
GI50 [9]: > 100 µM
TGI [9]: > 100 µM
GI50 [10]: 16.5 µM
TGI [10]: 31.7 µM
GI50 [11]: 19.6 µM
TGI [11]: 45.4 µM
GI50 [12]: 18.7 µM
TGI [12]: 39 µM
GI50 [13]: 15.3 µM
TGI [13]: 40.1 µM
GI50 [14]: 69.5 µM
TGI [14]: > 100 µM
GI50 [15]: 19.1 µM
TGI [15]: 37.1 µM
GI50 [16]: 16.9 µM
TGI [16]: 51 µM
GI50 [17]: 15.8 µM
TGI [17]: 31.5 µM
GI50 [18]: 9.22 µM
TGI [18]: 27.8 µM
GI50 [19]: 30.5 µM
TGI [19]: > 100 µM
GI50 [20]: 22 µM
TGI [20]: 56.1 µM
GI50 [21]: 20 µM
TGI [21]: 43.7 µM
GI50 [22]: 12 µM
TGI [22]: 26.4 µM
GI50 [23]: > 100 µM
TGI [23]: > 100 µM
GI50 [24]: 25.5 µM
TGI [24]: 99.2 µM
GI50 [25]: 14.8 µM
TGI [25]: 42 µM
GI50 [26]: 13.5 µM
TGI [26]: > 100 µM
GI50 [27]: 29.6 µM
TGI [27]: > 100 µM
GI50 [28]: 10.6 µM
TGI [28]: 26.7 µM
GI50 [29]: 13.8 µM
TGI [29]: > 100 µM
GI50 [30]: 40.5 µM
TGI [30]: > 100 µM
GI50 [31]: 18.6 µM
TGI [31]: 36.2 µM
GI50 [32]: 20 µM
TGI [32]: 43 µM
GI50 [33]: 15.6 µM
TGI [33]: 38.4 µM
GI50 [34]: 17.4 µM
TGI [34]: 34.3 µM
GI50 [35]: 23.4 µM
TGI [35]: 72.6 µM
GI50 [36]: 11.4 µM
TGI [36]: 29.7 µM
GI50 [37]: 16.5 µM
TGI [37]: 36.1 µM
GI50 [38]: 22.7 µM
TGI [38]: 52.5 µM
GI50 [39]: 13.4 µM
TGI [39]: > 100 µM
GI50 [40]: 57.8 µM
TGI [40]: > 100 µM
GI50 [41]: 86.6 µM
TGI [41]: > 100 µM
GI50 [42]: 16.5 µM
TGI [42]: 45.1 µM
GI50 [43]: 17.3 µM
TGI [43]: 52 µM
GI50 [44]: 20.6 µM
TGI [44]: 60.9 µM
GI50 [45]: 17.6 µM
TGI [45]: 36.9 µM
GI50 [46]: 15.3 µM
TGI [46]: 30 µM
GI50 [47]: 15.5 µM
TGI [47]: 31.8 µM
GI50 [48]: 29 µM
TGI [48]: > 100 µM
GI50 [49]: 19.1 µM
TGI [49]: 50.1 µM
GI50 [50]: 15.8 µM
TGI [50]: > 100 µM
GI50 [51]: 25.3 µM
TGI [51]: > 100 µM
GI50 [52]: 6.2 µM
TGI [52]: 25.5 µM
GI50 [53]: 19.1 µM
TGI [53]: 50.5 µM
GI50 [54]: 15.9 µM
TGI [54]: 38.3 µM
GI50 [55]: 10.6 µM
TGI [55]: 25.3 µM
GI50 [56]: 16.9 µM
TGI [56]: 41.2 µM
GI50 [57]: 12.4 µM
TGI [57]: 28 µM
GI50 [58]: 15.3 µM
TGI [58]: 40.9 µM
GI50 [59]: 15.1 µM
TGI [59]: 61.7 µM
